The text below walks through data of US20240210394A1, “MICROORGANISM CAPTURE FROM ANTIMICROBIAL-CONTAINING SOLUTION” (MOMENTUM BIOSCIENCE LIMITED, priority 2019, published 2024).

For assay [1], the system named is E. coli. The experiment in a line: Blood culture time to positivity (flip time), bead rescue vs no-rescue control. The following applies: Cefepime 164 mg/L blood; for Flip time: Bead rescue; for Flip time in Days: Control (FA plus bottle). It counts as cell-based. The protocol: (§1) Day 1: Prepare overnight culture of test organism in blood/broth medium (50:50 blood:broth) and incubate at 37° C. in a shaking incubator.
Day 2: Prepare ten-fold serial dilution of overnight culture in blood/broth as required and incubate at 37° C. for 2 h for outgrowth.
Add 5 mL of spiked blood+beads (set 1) and 5 mL of spiked blood/Abx+beads (set 3) to blood culture bottles (BioMerieux SA culture bottle) using a vial adapter (West Pharmaceutical Services, Inc. PA, US).
Remove the adaptor and incubate the blood culture bottles in the automated blood culture cabinet (BacT/ALERT BioMerieux) for up to 5 days.
Record the “Flip” time of each bottle or bottle result at the end of 5 days incubation. The “Flip” time is when a bottle turns positive as determined by the automated blood culture cabinet, which records time to positivity.
Day 1: Prepare overnight culture of test organism in blood/broth medium (50:50 blood:broth) and incubate at 37° C. (or 30° C. for C. neoformans) in a shaking incubator.
(or 30° C. for C. neoformans) for 2 h for outgrowth. • Antibiotic added to whole blood (defibrinated horse blood) at required level • Whole blood as no-antibiotic control • Test dilution(s) of organism added to blood+antibiotic or blood only at 10 μL per mL of blood (sufficient prepared for experiment requirements) • 100 μL plate count sample taken (TO sample) • 2-hour incubation (static) at 37° C. (or 30° C. for C. neoformans) • 100 μL plate count sample taken (T2 sample) • 5 mL of spiked blood+abx or blood only added to blood culture bottle (using vial adapter) and incubation started (adapter removed) • 5 mL of spiked blood+abx or blood only (from same source) treated with Momentum Capture Beads as below: • 1. Capture Beads diluted in the relevant Capture Reagent—50 μL beads:700 μL capture reagent per clean-up • 2. 750 μL of diluted beads added to 50 mL conical centrifuge tube • 3. 5 mL of transfer medium added to tube • 4. 5 mL of spiked blood+abx or blood only added to tube • 5. […] Magnetise on V&P magnet for 10 min then remove supernatant • 7. Resuspend beads in 1 mL Detergent-free Wash Buffer (DWB) off magnet and transfer to 2 mL Eppendorf flip-top tube on DynaMag-2 magnet • 8. Magnetise for 3 min then remove supernatant • 9. Resuspend beads in 1 mL Detergent-free Wash Buffer (DWB) off magnet then replace on DynaMag-2 magnet • 10. Magnetise for 3 min then remove supernatant • 11. Resuspend beads in 1 mL DWB, add to new blood culture bottle (using vial adapter) and start incubation (adapter removed)
Momentum Capture Beads diluted in the relevant Capture Reagent—50 μL beads:700 μL capture reagent per clean-up • 2. 750 μL of diluted beads added to 50 mL conical centrifuge tube • 3. 5 mL of transfer medium added to tube • 4. 5 mL of spiked blood+abx or blood only added to tube • 5. […] Magnetise on V&P magnet for 10 min then remove supernatant • 7. Resuspend beads in 1 mL Detergent-free Wash Buffer (DWB) off magnet and transfer to 2 mL Eppendorf flip-top tube on DynaMag-2 magnet • 8. Magnetise for 3 min then remove supernatant • 9. Resuspend beads in 1 mL Detergent-free Wash Buffer (DWB) off magnet then replace on DynaMag-2 magnet • 10. Magnetise for 3 min then remove supernatant • 11. Resuspend beads in 1 mL DWB, add to an unused blood culture bottle (BioMerieux FA+culture bottle) using vial adapter and start incubation (adapter removed)

The subject of the next assay is Klebsiella pneumoniae. The following applies: K. pneumoniae; cited from earlier work.
Assay [2] deals with S. aureus. The following applies: cited from earlier work.
Assay [3] deals with S. aureus. The experiment in a line: Blood culture time to positivity (flip time), bead rescue vs no-rescue control. It is filed as cell-based. Conditions: for Flip time: Cefepime 164 mg/L blood; for Difference (Days) compared to BE / Flip time in Days: Vancomycin 500 mg/L blood, antibiotic-labelled line = BC control without beads; for Flip time in Days: bead rescue with named bead type; for Bead Rescue Flip time / Control Flip time in Days: antibiotic 500 mg/L blood. As for the experimental part: An overnight culture of test organism was prepared in blood/broth medium (50:50 blood:broth medium from a BioMerieux SA culture bottle).
Ten-fold serial dilutions of overnight culture was prepared in blood/broth as required.
Antibiotic (abx) was added to whole human blood (in citrate-phosphate-dextrose, CPD, an anticoagulant) at required level.
Whole blood was used as the no-antibiotic control.
Test dilution(s) of organism was added to blood+antibiotic or blood only at 10 μL per mL of blood (sufficient prepared for experiment requirements). 100 μL plate count sample was taken (TO sample).
The inoculated samples were incubated at 37° C. (static) for 2-hour. 100 μL plate count sample was taken (T2 sample).
For the control, 5 mL of spiked blood+abx or blood only was added to blood culture bottles (BioMerieux SA culture bottle) using a vial adapter (West Pharmaceutical Services, Inc. PA, US) and incubated in the automated blood culture cabinet (adapter removed).
For the ‘rescue’ test, 5 mL of spiked blood+abx or blood only was treated with Momentum Capture Beads (Streptavidin-coated, −300 nm beads, Bio estapor, Merk Cat #BE-M 08/0.3) as below: • Momentum Capture Beads diluted in Detergent-free Microbial Binding Buffer (DMBB—Tris+NaCl)—50 μL beads:700 μL DMBB per clean-up • 750 μL of diluted beads added to 50 mL conical centrifuge tube • 5 mL of broth medium added to tube • 5 mL of spiked blood+abx or blood only added to tube • Incubate on ITL TherMix (Integrated Technologies Ltd. Kent, UK), 32.5° C./30 min/1000 rpm—ramped speed protocol • Magnetise on V&P magnet (V&P scientific Inc, CA, US) for 5 min then remove supernatant • Resuspend beads in 1 mL Detergent-free Wash Buffer (DWB—Tris+NaCl) off magnet and transfer to 2 mL Eppendorf flip-top tube on DynaMag-2 magnet (Thermo Fisher Scientific, Life Technologies Ltd. Paisley, UK) • Magnetise for 5 min then remove supernatant • Resuspend beads in 1 mL DWB off magnet then replace on DynaMag-2 magnet • Magnetise for 5 min then remove supernatant • Resuspend beads in 1 mL DWB, add to a fresh, unused blood culture bottle (BioMerieux SA culture bottle) containing standard blood culture growth medium using a vial adapter, and start incubation (adapter removed). • Blood culture bottles are incubated in the automated blood culture cabinet (BacT/ALERT BioMerieux) which records time to positivity. The “Flip” time is when a bottle turns positive as determined by the automated blood culture cabinet. • “Flip” time of each bottle is recorded. • Plate counts (Total Viable Count TVC) are recorded.
as §1
Day 2: Prepare ten-fold serial dilution of overnight culture in blood/broth as required • Antibiotic added to whole blood (defibrinated horse blood) at required level • Whole blood as no-antibiotic control • Test dilution(s) of organism added to blood+antibiotic or blood only at 10 μL per mL of blood (sufficient prepared for experiment requirements) • 100 μL plate count sample taken (TO sample) • 2-hour incubation at 37° C. (static), to mimic organism exposure to antimicrobials in the patient • 100 μL plate count sample taken (T2 sample) • 5 mL of spiked blood+abx or blood only added to blood culture bottle (using vial adapter) and incubation started (adapter removed) • 5 mL of spiked blood+abx or blood only (from same source) treated with Momentum Capture Beads as below: • 1. Momentum Capture Beads diluted in Detergent-free Microbial Binding Buffer (DMBB)—50 μL beads:700 μL DMBB per clean-up • 2. 750 μL of diluted beads added to 50 mL conical centrifuge tube • 3. 5 mL of transfer medium added to tube • 4. 5 mL of spiked blood+abx or blood only added to tube • 5.

A further assay concerns Pseudomonas aeruginosa. The following applies: P. aeruginosa; cited from earlier work.
For assay [4], the system named is E. coli. Conditions: cited from earlier work.
Assay [5] deals with S. aureus. Description: Antibiotic breakpoint experiment (plate counts at 0, 2.5 and 5 hours). Conditions: two different strains of S. aureus, every time point. It is filed as cell-based. As for the experimental part:
To determine a starting point in terms of antibiotic concentration and microbial load for subsequent experiments. Antibiotic concentration ranges were tested to find appropriate breakpoints for use in experiments. A range of antibiotic concentrations were tested against a given microbial load to determine the concentration at which growth was inhibited but the microorganisms were not killed. This was determined by plate counts at intervals of 0, 2.5 and 5 hours.
• 1. Day 1: Prepare an overnight culture of the test organism in 3 mL of blood/broth solution (1.5 mL defibrinated Horse blood: 1.5 mL transfer Medium). • 2. Day 2: Dissolve antibiotic in required diluent to prepare a suitable stock solution and prepare a dilution series in Nuclease-free Water to cover a final concentration range of 100 to 0.001 and Omg/L. • 3. Dilute the overnight culture of the microorganism to the required point in pre-warmed blood/broth solution. This may require determining for each organism/antibiotic combination, but as a starting dilution 10-4 will be used (giving a final concentration in the sample of 10-5). • 4. Aliquot 980 μL of pre-warmed defibrinated horse blood into the required number of 2 mL flip-top tube. • 5. […]
The concentrations determined by this protocol were used in the following examples unless stated otherwise. […]

Molecules are shown by their SMILES.

As usually defined, the MIC is the smallest concentration in the dilution series that meets the test's criterion for growth inhibition. Consider `CO/N=C(\C(=O)N[C@@H]1C(=O)N2C(C(=O)[O-])=C(C[N+]3(C)CCCC3)CS[C@H]12)c1csc(N)n1` [Cefepime], for which the “Flip time” value was determined as 0.47 days in the assay on E. coli [1] (125000 cfu/5 mL blood); 0.38 days with E. coli [1] (1250000 cfu/5 mL blood); 0.46 days with S. aureus [3] (Bead rescue, 125000 cfu/5 mL blood); 0.39 days in the assay on S. aureus [3] (Bead rescue, 750000 cfu/5 mL blood); 2.69 days in the assay on S. aureus [3] (Control (FA plus bottle), 125000 cfu/5 mL blood); 2.49 days in the assay on S. aureus [3] (Control (FA plus bottle), 750000 cfu/5 mL blood). The “Flip time in Days” value in the assay with E. coli [1] (125000 cfu/5 mL blood) and with E. coli [1] (1250000 cfu/5 mL blood) was “Neg” in each case. The minimal inhibitory concentration (MIC) is no more than 1 µg/mL in the assay on Klebsiella pneumoniae, no more than 4 µg/mL in the assay with S. aureus [2], no more than 1 µg/mL with Pseudomonas aeruginosa and no more than 1 µg/mL in the assay on E. coli [4].

For `CN[C@H](CC(C)C)C(=O)N[C@H]1C(=O)N[C@@H](CC(N)=O)C(=O)N[C@H]2C(=O)N[C@H]3C(=O)N[C@H](C(=O)N[C@H](C(=O)O)c4cc(O)cc(O)c4-c4cc3ccc4O)[C@H](O)c3ccc(c(Cl)c3)Oc3cc2cc(c3O[C@@H]2O[C@H](CO)[C@@H](O)[C@H](O)[C@H]2O[C@H]2C[C@](C)(N)[C@H](O)[C@H](C)O2)Oc2ccc(cc2Cl)[C@H]1O` [Vancomycin], the “Growth in antibiotic dilution series (breakpoint experiment)” value in the assay on S. aureus [5] was “grew in every dilution”. Moreover, in the assay on S. aureus [3] (Example 23, S. aureus in blood containing 500 mg/L Vancomycin), the “No-rescue blood culture control result” value is “negative after 5 days”. Further, in the assay on S. aureus [3] (Example 24, S. aureus in blood containing 500 mg/L Vancomycin), the “No-rescue blood culture controls result” value is on record as “negative”. Further, the “Difference (Days) compared to BE” value in the assay on S. aureus [3] (20000 Cfu/mL), in the assay on S. aureus [3] (35760 Cfu/mL), in the assay on S. aureus [3] (200000 Cfu/mL) and with S. aureus [3] (357600 Cfu/mL) was “Negative” each time. In addition, the “Flip time in Days” value with S. aureus [3] (20000 Cfu/mL), in the assay with S. aureus [3] (35760 Cfu/mL), in the assay with S. aureus [3] (200000 Cfu/mL) and with S. aureus [3] (357600 Cfu/mL) was “Negative” each time. Further, the “Bead Rescue Flip time” value in the assay on S. aureus [3] (1000 cfu/5 mL Blood) stood at 1.15 days; in the assay on S. aureus [3] (100000 cfu/5 mL Blood) it was 0.66 days; in the assay with S. aureus [3] (1000000 cfu/5 mL Blood), 0.61 days. Also, the “Control Flip time in Days” value in the assay with S. aureus [3] (1000 cfu/5 mL Blood), in the assay with S. aureus [3] (100000 cfu/5 mL Blood) and in the assay on S. aureus [3] (1000000 cfu/5 mL Blood) was “Neg” each time.
